Data as given in patent publication US20250009725A1, “PHARMACEUTICAL COMPOSITION HAVING EXCELLENT DISSOLUTION PROPERTIES” (DAIICHI SANKYO COMPANY, LIMITED, priority 2021, published 2025).
Where a name gives a salt, the structure may show the parent alone.

Test: Solubility and dissolution of valemetostat tosylate under vigorous or slow agitation
Type: physicochemical
Text: The object of the present invention is to provide a pharmaceutical composition in which valemetostat or a pharmaceutically acceptable salt thereof, particularly valemetostat tosylate, has excellent dissolution properties. […] Since the effect of vigorous agitation cannot be expected in vivo, a pharmaceutical composition having sufficient dissolution properties in vivo is needed.

- solubility (in words): sufficient solubility
SMILES: Cc1cc(C)c(CNC(=O)c2cc(Cl)c3c(c2C)O[C@@](C)([C@H]2CC[C@H](N(C)C)CC2)O3)c(=O)[nH]1 [valemetostat tosylate, (2R)-7-chloro-2-[trans-4-(dimethylamino)cyclohexyl]-N-[(4,6-dimethyl-2-oxo-1,2-dihydropyridin-3-yl)methyl]-2,4-dimethyl-1,3-benzodioxol-5-carboxamide p-toluenesulfonate]
